Data from PubChem BioAssay AID1963976 (Molecular Pharmacology Branch, DTP, NCI, 2024).

Test system: 435261-313-R-J1-PDC tumor spheroid viability
Test: Anticancer human tumor 435261-313-R-J1-PDC patient-derived colon adenocarcinoma cell line growth inhibition [PI3K]
Settings: spheroids with HUVEC and MSC; for IC50: curve of first compound; for viability, T/C: stronger effect = lower value
From the text: Combinatorial screen of targeted agents with the PI3K inhibitors inavolisib, alpelisib, duvelisib, and copanlisib in multi-cell type tumor spheroids
A high-throughput screen of multi-cell type tumor spheroids was designed to identify active combinations of targeted small molecules and PI3K pathway inhibitors. Complex spheroids include a stromal component modeled by human endothelial cells (HUVEC) and fibroblasts modeled by human mesenchymal stem cells (MSCs). The concentration ranges selected for each drug and investigational agent were based upon clinically achievable concentrations if the clinical Cmax of the agent was known.
Compounds. The drugs and investigational agents: inavolisib (NSC800729), alpelisib (NSC765974), duvelisib (NSC772469), copanlisib (NSC816437), ipatasertib (NSC767898), afuresertib (NSC778305), talazoparib (NSC767125), sapanisertib (NSC764658), selumetinib (NSC741078), tovorafenib (DAY101, NSC766906), vemurafenib (NSC761431), ravoxertinib (NSC781343), sotorasib (NSC818433), MRTX1133 (NSC 836407), abemaciclib (NSC 768073), palbociclib (NSC758247), venetoclax (NSC 766270), SY5609 (NSC837396), enzalutamide (NSC755605), and darolutamide (NSC825331), were obtained from the National Cancer Institute (NCI) Developmental Therapeutics Program Chemical Repository. The FDA-approved anticancer drug set is available from the NCI Developmental Therapeutics Program. […] The stock solutions were prepared in dimethyl sulfoxide (DMSO, Sigma-Aldrich, St. Louis, MO, cat. D2650) at 800-fold the tested concentration and stored at -70 degrees C prior to their use. All drugs and investigational agents were tested over a range starting from a high concentration at or near the clinical Cmax and decreasing in half-log increments. If the clinical Cmax for an agent had not been determined, the highest concentration tested was 10 microM.
Cell Culture. All cells were maintained in an incubator at 37 degrees C and 5% CO2 with 95% humidity. The PDC lines were cultured according to standard operating procedures established by the NCI PDMR (https://pdmr.cancer.gov/sops/default.htm). All PDCs were thawed and cultured in Matrigel-coated flasks prepared with a working solution of 1X Ham's F-12 nutrient mix, without supplementation (Invitrogen, Waltham, MA, cat. 11765054), 100 U/mL penicillin-streptomycin (Invitrogen, cat. 15140122), and 2.5% Matrigel (Corning Inc., Corning, NY, cat. 354248) for the first three passages. The 354836-022-R-J1-PDC, 475296-252-R-J1-PDC, and 997726-040-R-J2-PDC lines were cultured in 6A media, which includes advanced DMEM/F-12 (Thermo Fisher Scientific, cat. 12634028), 10 mM HEPES (Thermo Fisher Scientific, cat. 15630080), 1X GlutaMAX supplement (Thermo Fisher Scientific, cat. 35050061), 0.1 mg/mL primocin (InvivoGen, San Diego, CA, cat. ant-pm-2), 10% defined fetal bovine serum, heat inactivated (HyClone Laboratories Inc., Logan, UT, cat. SH30070.03HI), 50% L-WRN conditioned media (ATCC, cat. CRL-3276), 1.25 mM N-Acetyl-L-cysteine (Sigma-Aldrich, cat. A9165), 10 mM nicotinamide (Sigma-Aldrich, cat. N0636), 1X B-27 supplement (Thermo Fisher Scientific, cat. 17504044), 1X N-2 supplement (Thermo Fisher Scientific, cat. 17502048), and 10 microM Y-27632 dihydrochloride (Tocris Bioscience, Bristol, United Kingdom, cat. 1254). The 624824-186-R-J2-PDC line was cultured in 6C/Colon 1B media, which includes all 6A media components plus 50 ng/mL human EGF recombinant protein (Thermo Fisher Scientific, cat. PHG0311). […]
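Further: spheroids exposed to compounds for 7 days.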

C#Cc1c(F)ccc2cc(O)cc(-c3ncc4c(N5CC6CCC(C5)N6)nc(OCC56CCCN5CC(F)C6)nc4c3F)c12 (configuration not stated) + CC(Nc1ncnc2nc[nH]c12)c1cc2cccc(Cl)c2c(=O)n1-c1ccccc1
IC50 (second compound 0.0316 µM): 6.85 µM | IC50 (second compound 0.1 µM): > 10 µM | IC50 (second compound 0.316 µM): 7.21 µM | IC50 (second compound 1 µM): 5.49 µM | IC50 (second compound 3.16 µM): 4.51 µM | IC50 (second compound 10 µM): 0.319 µM | viability, T/C (second compound 0.0316 µM, first compound 0.0316 µM): 78.7% | viability, T/C (second compound 0.0316 µM, first compound 0.1 µM): 100% | viability, T/C (second compound 0.0316 µM, first compound 0.316 µM): 98.3% | viability, T/C (second compound 0.0316 µM, first compound 1 µM): 89.3% | viability, T/C (second compound 0.0316 µM, first compound 3.16 µM): 81.9% | viability, T/C (second compound 0.0316 µM, first compound 10 µM): 34.5% | viability, T/C (second compound 0.1 µM, first compound 0.0316 µM): 97.8% | viability, T/C (second compound 0.1 µM, first compound 0.1 µM): 109% | viability, T/C (second compound 0.1 µM, first compound 0.316 µM): 72.2% | viability, T/C (second compound 0.1 µM, first compound 1 µM): 82% | viability, T/C (second compound 0.1 µM, first compound 3.16 µM): 68.2% | viability, T/C (second compound 0.1 µM, first compound 10 µM): 56% | viability, T/C (second compound 0.316 µM, first compound 0.0316 µM): 89% | viability, T/C (second compound 0.316 µM, first compound 0.1 µM): 85.3% | viability, T/C (second compound 0.316 µM, first compound 0.316 µM): 79.8% | viability, T/C (second compound 0.316 µM, first compound 1 µM): 105% | viability, T/C (second compound 0.316 µM, first compound 3.16 µM): 103% | viability, T/C (second compound 0.316 µM, first compound 10 µM): 33.2% | viability, T/C (second compound 1 µM, first compound 0.0316 µM): 94.9% | viability, T/C (second compound 1 µM, first compound 0.1 µM): 70.4% | viability, T/C (second compound 1 µM, first compound 0.316 µM): 82.3% | viability, T/C (second compound 1 µM, first compound 1 µM): 103% | viability, T/C (second compound 1 µM, first compound 3.16 µM): 67% | viability, T/C (second compound 1 µM, first compound 10 µM): 31.4% | viability, T/C (second compound 3.16 µM, first compound 0.0316 µM): 62% | viability, T/C (second compound 3.16 µM, first compound 0.1 µM): 66.2% | viability, T/C (second compound 3.16 µM, first compound 0.316 µM): 43.3% | viability, T/C (second compound 3.16 µM, first compound 1 µM): 90.6% | viability, T/C (second compound 3.16 µM, first compound 3.16 µM): 50.1% | viability, T/C (second compound 3.16 µM, first compound 10 µM): 32.7% | viability, T/C (second compound 10 µM, first compound 0.0316 µM): 56.5% | viability, T/C (second compound 10 µM, first compound 0.1 µM): 46.9% | viability, T/C (second compound 10 µM, first compound 0.316 µM): 52.3% | viability, T/C (second compound 10 µM, first compound 1 µM): 34.9% | viability, T/C (second compound 10 µM, first compound 3.16 µM): 18.8% | viability, T/C (second compound 10 µM, first compound 10 µM): 13.7%
